Experimental data from the kinase profiling compilation of Christmann-Franck et al. (2016).
Values joined by “and” are separate entries in the source; they are usually repeats but may differ in a detail not shown here. Equal entries are not always repeated.

How the values were obtained:
Assay in all cases: radiometric filter-binding kinase assay, Kinase HotSpot
Conditions in all cases: compound 0.5 µM; ATP 10 µM
MAP2K2 (human) = MAP2K2 (human) (UniProt P36507)
EPHA2 (human) = EPHA2 (human) (UniProt P29317)
EPHA1 (human) = EPHA1 (human) (UniProt P21709)
Chain of EPHA1 (human) (P21709 whole entry, looked up): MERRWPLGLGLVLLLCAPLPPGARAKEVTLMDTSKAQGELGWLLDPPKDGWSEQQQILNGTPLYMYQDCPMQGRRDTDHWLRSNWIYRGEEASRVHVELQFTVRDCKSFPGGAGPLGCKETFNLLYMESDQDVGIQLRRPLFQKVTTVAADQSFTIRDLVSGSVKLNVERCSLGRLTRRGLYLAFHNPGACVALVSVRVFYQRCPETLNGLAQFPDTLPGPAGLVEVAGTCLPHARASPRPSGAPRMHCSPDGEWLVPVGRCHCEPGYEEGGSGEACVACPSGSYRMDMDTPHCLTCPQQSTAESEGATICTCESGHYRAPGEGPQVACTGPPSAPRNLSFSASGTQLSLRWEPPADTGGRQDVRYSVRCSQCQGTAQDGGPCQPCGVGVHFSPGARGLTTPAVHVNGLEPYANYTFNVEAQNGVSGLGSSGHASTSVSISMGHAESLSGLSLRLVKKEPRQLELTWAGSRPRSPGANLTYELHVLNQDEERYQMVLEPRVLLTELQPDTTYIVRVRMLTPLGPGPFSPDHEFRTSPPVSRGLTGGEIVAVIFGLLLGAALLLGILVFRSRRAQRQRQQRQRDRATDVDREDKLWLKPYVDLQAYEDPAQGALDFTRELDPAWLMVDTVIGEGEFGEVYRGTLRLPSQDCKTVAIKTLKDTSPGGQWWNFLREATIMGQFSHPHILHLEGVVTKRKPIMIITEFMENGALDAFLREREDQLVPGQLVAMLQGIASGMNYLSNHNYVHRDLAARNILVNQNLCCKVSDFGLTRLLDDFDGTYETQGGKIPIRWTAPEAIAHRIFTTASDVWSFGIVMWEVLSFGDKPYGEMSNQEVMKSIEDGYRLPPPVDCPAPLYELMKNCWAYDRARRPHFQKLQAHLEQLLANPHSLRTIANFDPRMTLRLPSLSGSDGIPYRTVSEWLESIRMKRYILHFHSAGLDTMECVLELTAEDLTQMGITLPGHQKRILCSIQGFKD

DYRK1A (human) = DYRK1A (human) (UniProt Q13627)
TBK1 (human) = TBK1 (human) (UniProt Q9UHD2)
NUAK2 (human) = NUAK2 (human) (UniProt Q9H093)
DAPK1 (human) = DAPK1 (human) (UniProt P53355)
SRPK2 (human) = SRPK2 (human) (UniProt P78362)
STK25 (human) = STK25 (human) (UniProt O00506)
GSG2 (human) = GSG2 (human) (UniProt Q8TF76)
IGF1R (human) = IGF1R (human) (UniProt P08069)
RET (human) = RET (human) (UniProt P07949)
Chain of RET (human) (P07949 whole entry, looked up): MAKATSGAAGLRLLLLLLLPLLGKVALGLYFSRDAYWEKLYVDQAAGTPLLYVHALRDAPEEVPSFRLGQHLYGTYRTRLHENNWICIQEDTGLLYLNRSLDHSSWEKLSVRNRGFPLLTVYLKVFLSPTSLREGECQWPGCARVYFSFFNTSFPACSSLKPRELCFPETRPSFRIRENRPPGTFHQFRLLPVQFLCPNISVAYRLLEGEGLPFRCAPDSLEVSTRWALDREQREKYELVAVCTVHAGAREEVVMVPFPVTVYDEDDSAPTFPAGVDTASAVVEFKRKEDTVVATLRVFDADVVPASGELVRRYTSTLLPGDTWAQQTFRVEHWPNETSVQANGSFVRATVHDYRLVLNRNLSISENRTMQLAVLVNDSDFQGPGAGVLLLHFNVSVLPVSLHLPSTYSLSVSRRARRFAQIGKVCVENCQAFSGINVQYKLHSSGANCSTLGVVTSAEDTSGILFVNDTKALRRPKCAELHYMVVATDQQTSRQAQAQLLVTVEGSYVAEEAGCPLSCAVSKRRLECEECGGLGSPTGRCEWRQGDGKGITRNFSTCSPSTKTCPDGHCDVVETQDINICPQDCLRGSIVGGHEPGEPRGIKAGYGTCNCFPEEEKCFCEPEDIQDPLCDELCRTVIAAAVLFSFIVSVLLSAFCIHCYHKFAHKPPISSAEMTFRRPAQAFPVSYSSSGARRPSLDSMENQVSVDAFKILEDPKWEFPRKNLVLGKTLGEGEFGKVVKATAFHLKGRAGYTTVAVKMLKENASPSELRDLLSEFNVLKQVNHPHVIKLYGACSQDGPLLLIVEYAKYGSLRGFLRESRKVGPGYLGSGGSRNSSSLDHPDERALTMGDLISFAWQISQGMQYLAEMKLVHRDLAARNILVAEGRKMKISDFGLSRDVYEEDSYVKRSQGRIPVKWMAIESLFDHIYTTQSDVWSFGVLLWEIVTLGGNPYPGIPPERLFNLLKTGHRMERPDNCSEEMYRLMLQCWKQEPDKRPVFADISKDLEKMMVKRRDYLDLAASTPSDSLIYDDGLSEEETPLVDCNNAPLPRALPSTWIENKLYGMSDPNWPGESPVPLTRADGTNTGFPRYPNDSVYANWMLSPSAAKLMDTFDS

MERTK (human) = MERTK (human) (UniProt Q12866)
CAMK1D (human) = CAMK1D (human) (UniProt Q8IU85)
Chain of CAMK1D (human) (Q8IU85 whole entry, looked up): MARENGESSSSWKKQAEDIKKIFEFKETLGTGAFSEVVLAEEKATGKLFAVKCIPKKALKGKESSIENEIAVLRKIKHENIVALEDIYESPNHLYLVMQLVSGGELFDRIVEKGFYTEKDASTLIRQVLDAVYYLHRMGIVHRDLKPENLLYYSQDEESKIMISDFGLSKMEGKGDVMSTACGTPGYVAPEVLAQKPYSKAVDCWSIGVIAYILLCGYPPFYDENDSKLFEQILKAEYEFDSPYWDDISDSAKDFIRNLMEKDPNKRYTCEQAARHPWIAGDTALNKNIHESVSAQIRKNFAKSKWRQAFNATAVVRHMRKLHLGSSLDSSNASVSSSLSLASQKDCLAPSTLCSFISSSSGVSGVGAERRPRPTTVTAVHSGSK

MAP3K9 (human) = MAP3K9 (human) (UniProt P80192)
HIPK4 (human) = HIPK4 (human) (UniProt Q8NE63)
FES (human) = FES (human) (UniProt P07332)
Chain of FES (human) (P07332 whole entry, looked up): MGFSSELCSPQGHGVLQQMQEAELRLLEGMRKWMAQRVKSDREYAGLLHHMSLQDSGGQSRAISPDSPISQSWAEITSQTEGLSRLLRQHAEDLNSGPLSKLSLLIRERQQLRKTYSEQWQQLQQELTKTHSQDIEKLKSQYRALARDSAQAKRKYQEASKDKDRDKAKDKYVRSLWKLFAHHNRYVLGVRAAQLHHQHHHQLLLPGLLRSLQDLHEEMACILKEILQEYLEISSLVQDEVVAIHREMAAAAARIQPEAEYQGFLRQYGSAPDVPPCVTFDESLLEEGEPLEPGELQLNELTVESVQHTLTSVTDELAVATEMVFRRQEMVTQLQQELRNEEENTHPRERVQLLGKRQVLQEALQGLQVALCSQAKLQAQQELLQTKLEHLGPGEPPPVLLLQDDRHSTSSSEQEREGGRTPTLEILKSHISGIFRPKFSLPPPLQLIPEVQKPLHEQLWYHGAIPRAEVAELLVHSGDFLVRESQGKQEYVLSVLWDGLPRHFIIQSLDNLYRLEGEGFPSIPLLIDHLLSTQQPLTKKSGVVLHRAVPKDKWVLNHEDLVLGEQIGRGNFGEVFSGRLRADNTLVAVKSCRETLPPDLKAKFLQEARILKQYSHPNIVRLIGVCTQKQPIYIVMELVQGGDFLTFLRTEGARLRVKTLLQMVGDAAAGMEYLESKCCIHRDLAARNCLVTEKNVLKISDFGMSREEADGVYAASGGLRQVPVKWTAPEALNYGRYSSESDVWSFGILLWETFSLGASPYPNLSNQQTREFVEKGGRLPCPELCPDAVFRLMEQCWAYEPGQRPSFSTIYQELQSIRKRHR

RPS6KA3 KD1 KD2 (human) = RPS6KA3 KD1 KD2 (human) (UniProt P51812)
GSK3A (human) = GSK3A (human) (UniProt P49840)
Chain of GSK3A (human) (P49840 whole entry, looked up): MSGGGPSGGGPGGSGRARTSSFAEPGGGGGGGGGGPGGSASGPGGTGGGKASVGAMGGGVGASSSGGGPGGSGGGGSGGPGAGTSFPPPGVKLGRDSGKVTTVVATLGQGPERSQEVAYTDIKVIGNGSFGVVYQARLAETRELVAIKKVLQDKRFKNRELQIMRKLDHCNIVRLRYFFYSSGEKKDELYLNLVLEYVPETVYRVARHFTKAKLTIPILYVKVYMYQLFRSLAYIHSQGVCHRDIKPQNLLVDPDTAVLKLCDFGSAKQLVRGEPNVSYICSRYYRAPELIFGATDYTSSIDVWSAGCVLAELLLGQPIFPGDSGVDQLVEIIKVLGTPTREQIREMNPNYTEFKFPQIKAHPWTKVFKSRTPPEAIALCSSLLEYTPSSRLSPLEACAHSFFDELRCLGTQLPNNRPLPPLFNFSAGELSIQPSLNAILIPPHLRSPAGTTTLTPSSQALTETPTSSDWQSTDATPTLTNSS

NTRK3 (human) = NTRK3 (human) (UniProt Q16288)
MAPK13 (human) = MAPK13 (human) (UniProt O15264)
PRKD2 (human) = PRKD2 (human) (UniProt Q9BZL6)
NUAK1 (human) = NUAK1 (human) (UniProt O60285)
MARK1 (human) = MARK1 (human) (UniProt Q9P0L2)
EPHA3 (human) = EPHA3 (human) (UniProt P29320)
CHUK (human) = CHUK (human) (UniProt O15111)
EPHA8 (human) = EPHA8 (human) (UniProt P29322)
ABL2 (human) = ABL2 (human) (UniProt P42684)
[1] = molecular target: JAK1 JH1 catalytic (human) (UniProt P23458)
NEK7 (human) = NEK7 (human) (UniProt Q8TDX7)
CDK4 CCND3 (human) = CDK4 CCND3 (human) (UniProt P30281+P11802)
Chain of CDK4 CCND3 (human) (P11802 whole entry, looked up): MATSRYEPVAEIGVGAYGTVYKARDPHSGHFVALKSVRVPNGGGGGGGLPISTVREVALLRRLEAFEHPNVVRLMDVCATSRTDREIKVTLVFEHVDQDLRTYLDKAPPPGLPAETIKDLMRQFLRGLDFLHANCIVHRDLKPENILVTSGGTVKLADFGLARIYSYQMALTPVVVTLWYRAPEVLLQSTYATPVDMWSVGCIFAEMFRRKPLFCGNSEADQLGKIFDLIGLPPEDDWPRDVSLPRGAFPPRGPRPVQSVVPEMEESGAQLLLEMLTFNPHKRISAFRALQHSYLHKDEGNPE
Chain of CDK4 CCND3 (human) (P30281 whole entry, looked up): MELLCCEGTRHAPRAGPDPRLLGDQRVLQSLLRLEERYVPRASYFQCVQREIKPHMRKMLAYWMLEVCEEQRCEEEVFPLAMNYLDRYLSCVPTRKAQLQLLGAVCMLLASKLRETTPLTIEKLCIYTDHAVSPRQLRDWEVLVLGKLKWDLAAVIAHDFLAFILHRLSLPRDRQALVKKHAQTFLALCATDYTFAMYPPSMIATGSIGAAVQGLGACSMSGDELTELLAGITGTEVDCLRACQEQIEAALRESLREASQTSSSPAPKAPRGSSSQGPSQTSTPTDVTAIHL

BTK (human) = BTK (human) (UniProt Q06187)
TSSK1B (human) = TSSK1B (human) (UniProt Q9BXA7)
NTRK2 (human) = NTRK2 (human) (UniProt Q16620)
PRKG1 (human) = PRKG1 (human) (UniProt Q13976)
DDR2 (human) = DDR2 (human) (UniProt Q16832)
CSNK1G2 (human) = CSNK1G2 (human) (UniProt P78368)
EPHB2 (human) = EPHB2 (human) (UniProt P29323)
CAMK2B (human) = CAMK2B (human) (UniProt Q13554)
Chain of CAMK2B (human) (Q13554 whole entry, looked up): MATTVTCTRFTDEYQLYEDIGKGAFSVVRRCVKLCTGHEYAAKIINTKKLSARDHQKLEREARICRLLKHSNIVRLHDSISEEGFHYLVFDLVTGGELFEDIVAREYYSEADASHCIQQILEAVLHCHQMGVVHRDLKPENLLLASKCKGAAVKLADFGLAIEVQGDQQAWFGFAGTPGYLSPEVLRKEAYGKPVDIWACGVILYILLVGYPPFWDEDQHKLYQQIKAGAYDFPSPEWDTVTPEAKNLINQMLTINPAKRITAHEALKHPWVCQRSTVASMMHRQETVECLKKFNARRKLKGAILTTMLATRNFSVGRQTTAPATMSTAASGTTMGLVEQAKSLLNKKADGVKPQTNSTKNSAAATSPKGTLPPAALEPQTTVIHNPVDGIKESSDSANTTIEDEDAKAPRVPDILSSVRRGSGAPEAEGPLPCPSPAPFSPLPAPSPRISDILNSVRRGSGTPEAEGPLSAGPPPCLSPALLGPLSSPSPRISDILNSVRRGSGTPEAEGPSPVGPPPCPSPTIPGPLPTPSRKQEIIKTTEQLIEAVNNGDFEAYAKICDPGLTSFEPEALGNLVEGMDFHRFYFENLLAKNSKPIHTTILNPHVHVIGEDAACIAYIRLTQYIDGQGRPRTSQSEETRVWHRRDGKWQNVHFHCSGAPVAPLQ

PTK2B (human) = PTK2B (human) (UniProt Q14289)
MAP3K2 (human) = MAP3K2 (human) (UniProt Q9Y2U5)
CSNK2A2 (human) = CSNK2A2 (human) (UniProt P19784)

## O=c1c(-c2ccc(F)cc2)c(-c2ccncc2)[nH]n1-c1ccc(Cl)cc1
MAP2K2 (human)
  residual activity: 82.5%
EPHA2 (human)
  residual activity: 101%
EPHA1 (human)
  residual activity: 93.1%
DYRK1A (human)
  residual activity: 89.8%
TBK1 (human)
  residual activity: 112%
NUAK2 (human)
  residual activity: 88.7%
DAPK1 (human)
  residual activity: 84.5%
SRPK2 (human)
  residual activity: 94.4%
STK25 (human)
  residual activity: 111%
GSG2 (human)
  residual activity: 96.5%
IGF1R (human)
  residual activity: 92.8%
RET (human)
  residual activity: 99.6%
MERTK (human)
  residual activity: 82.7%
CAMK1D (human)
  residual activity: 72.2%
MAP3K9 (human)
  residual activity: 103%
HIPK4 (human)
  residual activity: 94.6%
FES (human)
  residual activity: 92.3%
RPS6KA3 KD1 KD2 (human)
  residual activity: 94.3%
GSK3A (human)
  residual activity: 93.3%
NTRK3 (human)
  residual activity: 99.2%
MAPK13 (human)
  residual activity: 102%
PRKD2 (human)
  residual activity: 73.4%
NUAK1 (human)
  residual activity: 89.1%
MARK1 (human)
  residual activity: 94.5%
EPHA3 (human)
  residual activity: 84.4%
CHUK (human)
  residual activity: 101%
EPHA8 (human)
  residual activity: 94.4%
ABL2 (human)
  residual activity: 82.8%
[1]
  residual activity: 103%
NEK7 (human)
  residual activity: 90.1%
CDK4 CCND3 (human)
  residual activity: 101%
BTK (human)
  residual activity: 83.6%
TSSK1B (human)
  residual activity: 76.2%
NTRK2 (human)
  residual activity: 88.5%
PRKG1 (human)
  residual activity: 106% and 95.6%
DDR2 (human)
  residual activity: 90.6%
CSNK1G2 (human)
  residual activity: 93.8%
EPHB2 (human)
  residual activity: 101%
CAMK2B (human)
  residual activity: 93.7%
PTK2B (human)
  residual activity: 91.7%
MAP3K2 (human)
  residual activity: 98.9%

## Nc1ncnc2c1cnn2-c1ccccc1
MAP2K2 (human)
  residual activity: 96.9%
EPHA2 (human)
  residual activity: 96%
EPHA1 (human)
  residual activity: 92.4%
DYRK1A (human)
  residual activity: 96.8%
NUAK2 (human)
  residual activity: 75.2%
DAPK1 (human)
  residual activity: 98.5%
SRPK2 (human)
  residual activity: 104%
STK25 (human)
  residual activity: 93.2%
GSG2 (human)
  residual activity: 94.8%
IGF1R (human)
  residual activity: 96.4%
RET (human)
  residual activity: 98.2%
MERTK (human)
  residual activity: 94.3%
CAMK1D (human)
  residual activity: 95.6%
MAP3K9 (human)
  residual activity: 106%
HIPK4 (human)
  residual activity: 86.3%
FES (human)
  residual activity: 99.7%
RPS6KA3 KD1 KD2 (human)
  residual activity: 95%
GSK3A (human)
  residual activity: 90.3%
NTRK3 (human)
  residual activity: 93.6%
PRKD2 (human)
  residual activity: 126%
NUAK1 (human)
  residual activity: 93.2%
MARK1 (human)
  residual activity: 94.8%
EPHA3 (human)
  residual activity: 95%
CHUK (human)
  residual activity: 92.6%
EPHA8 (human)
  residual activity: 90.5%
ABL2 (human)
  residual activity: 93%
[1]
  residual activity: 98.1%
NEK7 (human)
  residual activity: 106%
CDK4 CCND3 (human)
  residual activity: 94%
BTK (human)
  residual activity: 98.7%
TSSK1B (human)
  residual activity: 84.1%
NTRK2 (human)
  residual activity: 88.7%
PRKG1 (human)
  residual activity: 107% and 91.3%
DDR2 (human)
  residual activity: 92.3%
CSNK1G2 (human)
  residual activity: 95.1%
EPHB2 (human)
  residual activity: 96.2%
CAMK2B (human)
  residual activity: 97.8%
PTK2B (human)
  residual activity: 108%
MAP3K2 (human)
  residual activity: 89.5%

## N#Cc1c(NC(=O)c2cccc3ccccc23)sc2c1CCCC2
MAP2K2 (human)
  residual activity: 106%
EPHA1 (human)
  residual activity: 103%
DYRK1A (human)
  residual activity: 96.7%
CSNK2A2 (human)
  residual activity: 92.2%
TBK1 (human)
  residual activity: 94%
NUAK2 (human)
  residual activity: 76.7%
DAPK1 (human)
  residual activity: 109%
SRPK2 (human)
  residual activity: 99.2%
STK25 (human)
  residual activity: 95.7%
GSG2 (human)
  residual activity: 99%
RET (human)
  residual activity: 105%
MERTK (human)
  residual activity: 97.9%
CAMK1D (human)
  residual activity: 120%
MAP3K9 (human)
  residual activity: 99.5%
HIPK4 (human)
  residual activity: 110%
FES (human)
  residual activity: 103%
RPS6KA3 KD1 KD2 (human)
  residual activity: 99%
GSK3A (human)
  residual activity: 97.2%
MAPK13 (human)
  residual activity: 109%
PRKD2 (human)
  residual activity: 126%
NUAK1 (human)
  residual activity: 97.3%
MARK1 (human)
  residual activity: 100%
EPHA3 (human)
  residual activity: 103%
CHUK (human)
  residual activity: 99.6%
EPHA8 (human)
  residual activity: 104%
ABL2 (human)
  residual activity: 98.9%
[1]
  residual activity: 108%
NEK7 (human)
  residual activity: 89.2%
CDK4 CCND3 (human)
  residual activity: 97.1%
BTK (human)
  residual activity: 95%
TSSK1B (human)
  residual activity: 94.9%
NTRK2 (human)
  residual activity: 100%
PRKG1 (human)
  residual activity: 101% and 94.6%
DDR2 (human)
  residual activity: 95.8%
CSNK1G2 (human)
  residual activity: 103%
EPHB2 (human)
  residual activity: 97.5%
CAMK2B (human)
  residual activity: 101%
PTK2B (human)
  residual activity: 108%
MAP3K2 (human)
  residual activity: 84%

## COc1cc2c(N3CCN(C(=O)Nc4ccc(OC(C)C)cc4)CC3)ncnc2cc1OCCCN1CCCCC1
MAP2K2 (human)
  residual activity: 116%
EPHA2 (human)
  residual activity: 102%
EPHA1 (human)
  residual activity: 96.1%
DYRK1A (human)
  residual activity: 104%
CSNK2A2 (human)
  residual activity: 92.9%
TBK1 (human)
  residual activity: 97.2%
NUAK2 (human)
  residual activity: 100%
DAPK1 (human)
  residual activity: 103%
SRPK2 (human)
  residual activity: 103%
STK25 (human)
  residual activity: 93.4%
GSG2 (human)
  residual activity: 99.5%
IGF1R (human)
  residual activity: 97.7%
RET (human)
  residual activity: 91.5%
MERTK (human)
  residual activity: 106%
CAMK1D (human)
  residual activity: 110%
MAP3K9 (human)
  residual activity: 108%
HIPK4 (human)
  residual activity: 99.5%
FES (human)
  residual activity: 105%
RPS6KA3 KD1 KD2 (human)
  residual activity: 96.6%
GSK3A (human)
  residual activity: 105%
MAPK13 (human)
  residual activity: 99.3%
PRKD2 (human)
  residual activity: 96.4%
NUAK1 (human)
  residual activity: 104%
MARK1 (human)
  residual activity: 89.9%
EPHA3 (human)
  residual activity: 94.7%
CHUK (human)
  residual activity: 98.3%
EPHA8 (human)
  residual activity: 96.6%
[1]
  residual activity: 102%
NEK7 (human)
  residual activity: 93.4%
CDK4 CCND3 (human)
  residual activity: 104%
BTK (human)
  residual activity: 102%
TSSK1B (human)
  residual activity: 96.8%
NTRK2 (human)
  residual activity: 81.7%
PRKG1 (human)
  residual activity: 102% and 82.5%
DDR2 (human)
  residual activity: 102%
CSNK1G2 (human)
  residual activity: 95.5%
EPHB2 (human)
  residual activity: 97.6%
CAMK2B (human)
  residual activity: 99.9%
PTK2B (human)
  residual activity: 99.3%
MAP3K2 (human)
  residual activity: 103%

## CN[C@@H]1C[C@H]2O[C@@](C)([C@@H]1OC)n1c3ccccc3c3c4c(c5c6ccccc6n2c5c31)C(=O)NC4
EPHA2 (human)
  residual activity: 21.3%
TBK1 (human)
  residual activity: -0.455%
RPS6KA3 KD1 KD2 (human)
  residual activity: -1.27%
EPHA8 (human)
  residual activity: 25.7%
ABL2 (human)
  residual activity: 5.25%
[1]
  residual activity: 2.07%
CAMK2B (human)
  residual activity: 1.64%
